Results on 24 compounds are retold here after patent publication US4758555A, “Method for treating convulsions and epilepsy with organic copper compounds” (priority 1986, dated 1988).

Assay [1] can be described thus: Maximal Electroshock Seizure Test. The format is in vivo, male Carworth Farms #1 mice or Sprague-Dawley rats. Particulars: for ED50: Mus musculus, read-out: ED50 for inhibition of seizures, MES (Phase II).
A short description of assay [2]: Subcutaneous Pentylenetetrazol (Metrazol) Seizure Threshold Test. The format is in vivo, male Carworth Farms #1 mice or Sprague-Dawley rats. The note with it: for Lowest effective dose, Metrazol (Phase I): Table X; for Protection against Metrazol-induced seizures (in words): running text.
Where [3] appears, read: Table X, IP, challenge time 30 min.
Where [4] appears, read: Table X, IP, challenge time 4 hrs.
Setting [5] is: Table X, SC, challenge time 30 min.
Setting [6] is: Table X, SC, challenge time 4 hrs.

On to `CC(=O)Oc1ccccc1C(=O)O` [Aspirin, acetylsalicylate, reference compound], for which the “Anticonvulsant activity, Maximal Electroshock” value in assay [1] (Table VI, IP) is “I”. Also, the “Anticonvulsant activity, Metrazol” value in assay [2] (Table VI, IP) was “I”.

As usually defined, the ED50 is the dose that gives a 50% effect, or the effect in half of the subjects. On to `NC(=O)N1c2ccccc2C=Cc2ccccc21` [Carbamazepine, reference compound], for which the ED50 in assay [1] (Table X, IP, at time of peak activity) amounted to 9 mg/kg.

For the compound `O=C1CN=C(c2ccccc2Cl)c2cc([N+](=O)[O-])ccc2N1` [Clonazepam, reference compound], the ED50 in assay [1] (ip) is 19 mg/kg; in assay [2] (Mus musculus, ip, read-out: ED50 for inhibition of seizures, Metrazol (Phase II)) it was 0.2 mg/kg.

Consider `CCC1(c2ccccc2)NC(=O)NC1=O.CO.[OH][Cu][Cl]` (stereo not shown) [Cu(II)5-ethyl-5-phenylhydantoin(HO)(Cl)(CH3 OH)], for which the “Lowest effective dose, MES (Phase I)” value in assay [1] (setting [3]) is given as 30 milligrams per kilogram of bod; in assay [1] (setting [4]), “I”. The “Lowest effective dose, Metrazol (Phase I)” value in assay [2] (IP, challenge time 30 min) is listed as 30 milligrams per kilogram of bod; in assay [2] (IP, challenge time 4 hrs), “I”.

For `[Cu+2].[O-]c1ccccc1C=NCCN=Cc1ccccc1[O-]` [Cu(II) bissalicylatoethyleneimine], the “Anticonvulsant activity, Maximal Electroshock (Phase I)” value in assay [1] (Table IV, IP) was “I”; in assay [1] (Table IV, SC) it was “I”. For the same compound, the “Anticonvulsant activity, Metrazol (Phase I)” value in assay [2] (Table IV, SC) is “I”.

With `O=C([O-])c1cc(Cl)ccc1O.O=C([O-])c1cc(Cl)ccc1O.[Cu+2]` [Cu(II)(5-chlorosalicylate)2], the “Anticonvulsant activity, Maximal Electroshock (Phase I)” value in assay [1] (Table II, IP) was “I”.

As for `CCC1(CCC(C)C)C(=O)[N-]C(=O)NC1=O.CCC1(CCC(C)C)C(=O)[N-]C(=O)NC1=O.O.O.[Cu+2]` [Cu(II)(Amobarbital)2 (H2 O)2], the “Lowest effective dose, MES (Phase I)” value in assay [1] (setting [3]) was 100 milligrams per kilogram of bod; in assay [1] (setting [4]), “I”; in assay [1] (setting [5]) it was 300 milligrams per kilogram of bod; in assay [1] (setting [6]), “I”. Further, the “Lowest effective dose, Metrazol (Phase I)” value in assay [2] (IP, challenge time 30 min) is listed as 100 milligrams per kilogram of bod; in assay [2] (IP, challenge time 4 hrs), “I”; in assay [2] (SC, challenge time 30 min), 100 milligrams per kilogram of bod; in assay [2] (SC, challenge time 4 hrs) it was “I”.

As to `CCC1(CCC(C)C)C(=O)[N-]C(=O)NC1=O.CCC1(CCC(C)C)C(=O)[N-]C(=O)NC1=O.[Cu+2].c1c[nH]cn1.c1c[nH]cn1` [Cu(II)(Amobarbital)2 (imidazole)2], the “Lowest effective dose, MES (Phase I)” value in assay [1] (setting [3]) is recorded as 600 milligrams per kilogram of bod; in assay [1] (setting [4]) it was “I”; in assay [1] (setting [5]), “I”; in assay [1] (setting [6]), “I”. The “Lowest effective dose, Metrazol (Phase I)” value in assay [2] (IP, challenge time 30 min) is listed as 300 milligrams per kilogram of bod; in assay [2] (IP, challenge time 4 hrs), “I”; in assay [2] (SC, challenge time 30 min) it was “I”; in assay [2] (SC, challenge time 4 hrs), 600 milligrams per kilogram of bod.

With `CCC1(CCC(C)C)C(=O)[N-]C(=O)NC1=O.CCC1(CCC(C)C)C(=O)[N-]C(=O)NC1=O.[Cu+2].c1ccncc1.c1ccncc1` [Cu(II)(Amobarbital)2 (pyridine)2], the “Lowest effective dose, MES (Phase I)” value in assay [1] (setting [3]) is recorded as 300 milligrams per kilogram of bod; in assay [1] (setting [4]) it was 300 milligrams per kilogram of bod; in assay [1] (setting [5]), “I”; in assay [1] (setting [6]), 100 milligrams per kilogram of bod. Further, the “Lowest effective dose, Metrazol (Phase I)” value in assay [2] (IP, challenge time 30 min) is 100 milligrams per kilogram of bod; in assay [2] (IP, challenge time 4 hrs), 30 milligrams per kilogram of bod; in assay [2] (SC, challenge time 30 min) it was 600 milligrams per kilogram of bod; in assay [2] (SC, challenge time 4 hrs), 600 milligrams per kilogram of bod.

In the case of `C[C@H](N)C(=O)[O-].C[C@H](N)C(=O)[O-].[Cu+2]` [Cu(II)(L-alaninate)2], the “Protection against Metrazol-induced seizures (in words)” value (“Protection” for short) in assay [2] was “effective against the Metrazol-induced seizure at all doses studied and at both time intervals, 30 minutes and 4 hours”.

As to `N[C@@H](Cc1ccccc1)C(=O)[O-].N[C@@H](Cc1ccccc1)C(=O)[O-].[Cu+2]` [Cu(II)(L-phenylalaninate)2], the “Protection” value in assay [2] was “effective against the Metrazol-inducedseizure at all three doses studied but only at the shorter time period”.

As to `C[C@@H](O)[C@H](N)C(=O)[O-].C[C@@H](O)[C@H](N)C(=O)[O-].O.[Cu+2]` [Cu(II)(L-threoninate)2 H2 O], the “Protection” value in assay [2] was “effective against the Metrazol-induced seizure at all doses studied and at both time intervals, 30 minutes and 4 hours”.

As for `C[C@@H](O)[C@H](N)C(=O)[O-].C[C@H](N)C(=O)[O-].[Cu+2]` [Cu(II)(L-threoninate)(L-alaninate)], in assay [2], the “Protection” value was “effective against the Metrazol-induced seizure at all doses studied and at both time intervals, 30 minutes and 4 hours”.

As to `C[C@@H](O)[C@H](N)C(=O)[O-].N[C@@H](CO)C(=O)[O-].[Cu+2]` [Cu(II)(L-threoninate)(L-serinate)], the “Protection” value in assay [2] is “effective against the Metrazol-induced seizure at all doses studied and at both time intervals, 30 minutes and 4 hours”.

`CC(C)[C@H](N)C(=O)[O-].CC(C)[C@H](N)C(=O)[O-].O.[Cu+2]` [Cu(II)(L-valinate)2 H2 O]: the “Protection” value in assay [2] is “effective against the Metrazol-induced seizure at all doses studied and at both time intervals, 30 minutes and 4 hours”.

Consider `CCCC(C)C1(CC)C(=O)[N-]C(=S)NC1=O.CCCC(C)C1(CC)C(=O)[N-]C(=S)NC1=O.[Cu+2]` (stereo not shown) [Cu(II)(N--thiopental)2 (H2 O)2.5], for which the “Lowest effective dose, MES (Phase I)” value in assay [1] (setting [3]), in assay [1] (setting [4]), in assay [1] (setting [5]) and in assay [1] (setting [6]) was “I” each time. The “Lowest effective dose, Metrazol (Phase I)” value is reported as “I” in assay [2] (IP, challenge time 30 min); “I” in assay [2] (IP, challenge time 4 hrs); “I” in assay [2] (SC, challenge time 30 min); 30 milligrams per kilogram of bod in assay [2] (SC, challenge time 4 hrs).

Consider `CCC1(c2ccccc2)C(=O)[N-]C(=O)NC1=O.CCC1(c2ccccc2)C(=O)[N-]C(=O)NC1=O.CCC1(c2ccccc2)C(=O)[N-]C(=O)NC1=O.CCC1(c2ccccc2)C(=O)[N-]C(=O)NC1=O.O.O.O.O.O.O.O.O.O.O.O.[Cu+2].[Cu+2]` [Cu(II)(Phenobarbital)2 (H2 O)5.5], for which the “Lowest effective dose, MES (Phase I)” value in assay [1] (setting [3]), in assay [1] (setting [4]), in assay [1] (setting [5]) and in assay [1] (setting [6]) was 30 milligrams per kilogram of bod in each case. For the same compound, the “Lowest effective dose, Metrazol (Phase I)” value in assay [2] (IP, challenge time 30 min) is 5 milligrams per kilogram of bod; in assay [2] (IP, challenge time 4 hrs), 5 milligrams per kilogram of bod; in assay [2] (SC, challenge time 30 min), 30 milligrams per kilogram of bod; in assay [2] (SC, challenge time 4 hrs), 30 milligrams per kilogram of bod.

For `CCC1(c2ccccc2)C(=O)[N-]C(=O)NC1=O.CCC1(c2ccccc2)C(=O)[N-]C(=O)NC1=O.[Cu+2].c1c[nH]cn1.c1c[nH]cn1` [Cu(II)(Phenobarbital)2 (imidazole)2], the “Lowest effective dose, MES (Phase I)” value in assay [1] (setting [3]) is 100 milligrams per kilogram of bod; in assay [1] (setting [4]), 100 milligrams per kilogram of bod; in assay [1] (setting [5]), “I”; in assay [1] (setting [6]) it was 100 milligrams per kilogram of bod. Further, the “Lowest effective dose, Metrazol (Phase I)” value in assay [2] (IP, challenge time 30 min) is on record as 300 milligrams per kilogram of bod; in assay [2] (IP, challenge time 4 hrs), 30 milligrams per kilogram of bod; in assay [2] (SC, challenge time 30 min) it was 100 milligrams per kilogram of bod; in assay [2] (SC, challenge time 4 hrs) it was 100 milligrams per kilogram of bod.

Regarding `CCCC(C)C1(CC)C(=O)N=C([S-])NC1=O.CCCC(C)C1(CC)C(=O)N=C([S-])NC1=O.O.O.[Cu+2]` (stereo not shown) [Cu(II)(S--thiopental)2 (H2 O)2], the “Lowest effective dose, MES (Phase I)” value in assay [1] (setting [3]), in assay [1] (setting [4]), in assay [1] (setting [5]) and in assay [1] (setting [6]) was “I” in each case. Besides, the “Lowest effective dose, Metrazol (Phase I)” value is “I” in assay [2] (IP, challenge time 30 min); “I” in assay [2] (IP, challenge time 4 hrs); “I” in assay [2] (SC, challenge time 30 min); “I” in assay [2] (SC, challenge time 4 hrs).

As to `CC(=O)Oc1ccccc1C(=O)[O-].CC(=O)Oc1ccccc1C(=O)[O-].CS(C)=O.CS(C)=O.[Cu+2]` [Cu(II)(acetylsalicylate)2 (dimethylsulfoxide)2], the “Anticonvulsant activity, Maximal Electroshock (Phase I)” value in assay [1] (Table I, SC) is given as “I”.

Take `CC(=O)Oc1ccccc1C(=O)[O-].CC(=O)Oc1ccccc1C(=O)[O-].[Cu+2].c1ccncc1.c1ccncc1` [Cu(II)(acetylsalicylate)2 (pyridine)2]: the “Anticonvulsant activity, Maximal Electroshock (Phase I)” value in assay [1] (Table I, SC) is “I”.

Cu(II)5-ethyl-5-phenylhydantoin(CH3 OH): the “Lowest effective dose, MES (Phase I)” value is on record as 100 milligrams per kilogram of bod in assay [1] (setting [3]), 100 milligrams per kilogram of bod in assay [1] (setting [4]), 100 milligrams per kilogram of bod in assay [1] (setting [5]) and 30 milligrams per kilogram of bod in assay [1] (setting [6]). The “Lowest effective dose, Metrazol (Phase I)” value in assay [2] (IP, challenge time 30 min) was 100 milligrams per kilogram of bod; in assay [2] (IP, challenge time 4 hrs) it was “I”; in assay [2] (SC, challenge time 30 min), 100 milligrams per kilogram of bod; in assay [2] (SC, challenge time 4 hrs), 300 milligrams per kilogram of bod.

With Cu(II)(L-cystinate)2 H2 O, the “Protection” value in assay [2] is recorded as “effective against the Metrazol-inducedseizure at all three doses studied but only at the shorter time period”.

On to “Cu(II)n (Phenobarbital)n (pyridine)2n (H2 O)3n”, for which the “Lowest effective dose, Metrazol (Phase I)” value in assay [2] (SC, challenge time 30 min) was 30 milligrams per kilogram of bod; in assay [2] (SC, challenge time 4 hrs) it was 30 milligrams per kilogram of bod.
